From patent US12275731B2, “Azaindole inhibitors of wild-type and mutant forms of LRRK2” (DANA-FARBER CANCER INSTITUTE, INC., priority 2018, dated 2025)

Key:
Test in all cases: KinomeScan profiling
Type in all cases: binding
ERK1 = ERK1 (Homo sapiens, UniProt P27361); conditions: ERK1, 1 μM; read-out: % control
Method in brief: (§1)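 Percent-of-control values derive from RLU, calculated as (test − positive)/(negative − positive) × 100, where DMSO defines 100% and a positive control compound defines 0%. Each compound was tested at 1 μM in the 468-kinase panel; sub-35% readings indicate activity.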

PHKG2 = target: T1, PHKG2 (Homo sapiens, UniProt P15735); conditions: PHKG2, 1 μM; read-out: % control
T1 sequence (P15735 1-406): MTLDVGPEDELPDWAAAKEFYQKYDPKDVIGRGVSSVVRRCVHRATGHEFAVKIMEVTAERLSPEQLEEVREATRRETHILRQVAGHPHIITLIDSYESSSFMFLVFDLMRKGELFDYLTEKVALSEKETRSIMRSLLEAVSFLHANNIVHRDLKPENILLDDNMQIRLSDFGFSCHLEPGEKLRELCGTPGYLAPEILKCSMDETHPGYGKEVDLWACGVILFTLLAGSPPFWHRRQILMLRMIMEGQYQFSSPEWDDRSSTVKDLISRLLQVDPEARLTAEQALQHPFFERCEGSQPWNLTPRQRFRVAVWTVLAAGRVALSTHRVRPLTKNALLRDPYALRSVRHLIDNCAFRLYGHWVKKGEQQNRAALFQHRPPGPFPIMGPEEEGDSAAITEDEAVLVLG
Method in brief: as §1

DAPK1 = DAPK1 (Homo sapiens, UniProt P53355); conditions: DAPK1, 1 μM; read-out: % control
DAPK1, sequence (P53355 whole entry): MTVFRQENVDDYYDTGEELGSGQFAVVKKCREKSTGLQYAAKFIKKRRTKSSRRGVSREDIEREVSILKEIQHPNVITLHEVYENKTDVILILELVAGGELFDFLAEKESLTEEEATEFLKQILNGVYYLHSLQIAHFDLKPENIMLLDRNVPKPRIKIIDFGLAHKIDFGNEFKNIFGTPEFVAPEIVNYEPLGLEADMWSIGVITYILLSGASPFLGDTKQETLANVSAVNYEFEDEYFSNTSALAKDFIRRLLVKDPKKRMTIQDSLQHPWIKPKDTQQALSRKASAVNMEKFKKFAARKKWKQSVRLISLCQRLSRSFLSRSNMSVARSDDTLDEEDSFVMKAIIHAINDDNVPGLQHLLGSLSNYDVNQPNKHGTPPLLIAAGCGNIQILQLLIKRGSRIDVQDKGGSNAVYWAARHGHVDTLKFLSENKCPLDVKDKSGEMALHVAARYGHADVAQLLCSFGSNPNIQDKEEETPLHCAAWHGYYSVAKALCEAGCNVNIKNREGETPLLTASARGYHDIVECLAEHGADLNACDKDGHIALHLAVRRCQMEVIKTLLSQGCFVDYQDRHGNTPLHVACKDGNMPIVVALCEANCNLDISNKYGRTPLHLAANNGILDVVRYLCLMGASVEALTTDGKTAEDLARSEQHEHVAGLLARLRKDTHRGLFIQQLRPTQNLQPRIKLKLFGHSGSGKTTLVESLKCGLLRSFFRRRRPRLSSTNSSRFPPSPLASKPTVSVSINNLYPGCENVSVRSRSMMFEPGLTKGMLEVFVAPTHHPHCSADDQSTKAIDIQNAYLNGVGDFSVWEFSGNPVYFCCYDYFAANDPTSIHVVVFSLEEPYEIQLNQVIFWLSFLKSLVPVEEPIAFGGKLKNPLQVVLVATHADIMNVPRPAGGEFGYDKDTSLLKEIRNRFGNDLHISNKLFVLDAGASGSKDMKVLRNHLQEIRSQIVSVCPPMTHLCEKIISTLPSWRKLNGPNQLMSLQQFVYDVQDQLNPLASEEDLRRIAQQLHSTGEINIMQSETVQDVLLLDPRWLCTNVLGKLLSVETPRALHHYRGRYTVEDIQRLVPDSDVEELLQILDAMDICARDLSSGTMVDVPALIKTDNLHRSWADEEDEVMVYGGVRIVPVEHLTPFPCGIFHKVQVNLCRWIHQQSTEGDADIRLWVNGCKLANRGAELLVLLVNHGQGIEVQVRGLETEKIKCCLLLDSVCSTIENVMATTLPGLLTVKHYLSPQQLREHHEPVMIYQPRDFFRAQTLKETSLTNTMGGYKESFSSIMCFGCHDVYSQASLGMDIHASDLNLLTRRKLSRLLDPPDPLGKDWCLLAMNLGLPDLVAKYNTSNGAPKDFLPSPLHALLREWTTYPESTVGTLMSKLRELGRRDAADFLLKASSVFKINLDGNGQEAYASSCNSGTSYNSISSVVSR
Method in brief: as §1

STK36 = target: T2, STK36 (Homo sapiens, UniProt Q9NRP7); conditions: STK36, 1 μM; read-out: % control
T2 construct: purchased KinomeScan® (panel service)
T2 sequence (Q9NRP7 1-1315): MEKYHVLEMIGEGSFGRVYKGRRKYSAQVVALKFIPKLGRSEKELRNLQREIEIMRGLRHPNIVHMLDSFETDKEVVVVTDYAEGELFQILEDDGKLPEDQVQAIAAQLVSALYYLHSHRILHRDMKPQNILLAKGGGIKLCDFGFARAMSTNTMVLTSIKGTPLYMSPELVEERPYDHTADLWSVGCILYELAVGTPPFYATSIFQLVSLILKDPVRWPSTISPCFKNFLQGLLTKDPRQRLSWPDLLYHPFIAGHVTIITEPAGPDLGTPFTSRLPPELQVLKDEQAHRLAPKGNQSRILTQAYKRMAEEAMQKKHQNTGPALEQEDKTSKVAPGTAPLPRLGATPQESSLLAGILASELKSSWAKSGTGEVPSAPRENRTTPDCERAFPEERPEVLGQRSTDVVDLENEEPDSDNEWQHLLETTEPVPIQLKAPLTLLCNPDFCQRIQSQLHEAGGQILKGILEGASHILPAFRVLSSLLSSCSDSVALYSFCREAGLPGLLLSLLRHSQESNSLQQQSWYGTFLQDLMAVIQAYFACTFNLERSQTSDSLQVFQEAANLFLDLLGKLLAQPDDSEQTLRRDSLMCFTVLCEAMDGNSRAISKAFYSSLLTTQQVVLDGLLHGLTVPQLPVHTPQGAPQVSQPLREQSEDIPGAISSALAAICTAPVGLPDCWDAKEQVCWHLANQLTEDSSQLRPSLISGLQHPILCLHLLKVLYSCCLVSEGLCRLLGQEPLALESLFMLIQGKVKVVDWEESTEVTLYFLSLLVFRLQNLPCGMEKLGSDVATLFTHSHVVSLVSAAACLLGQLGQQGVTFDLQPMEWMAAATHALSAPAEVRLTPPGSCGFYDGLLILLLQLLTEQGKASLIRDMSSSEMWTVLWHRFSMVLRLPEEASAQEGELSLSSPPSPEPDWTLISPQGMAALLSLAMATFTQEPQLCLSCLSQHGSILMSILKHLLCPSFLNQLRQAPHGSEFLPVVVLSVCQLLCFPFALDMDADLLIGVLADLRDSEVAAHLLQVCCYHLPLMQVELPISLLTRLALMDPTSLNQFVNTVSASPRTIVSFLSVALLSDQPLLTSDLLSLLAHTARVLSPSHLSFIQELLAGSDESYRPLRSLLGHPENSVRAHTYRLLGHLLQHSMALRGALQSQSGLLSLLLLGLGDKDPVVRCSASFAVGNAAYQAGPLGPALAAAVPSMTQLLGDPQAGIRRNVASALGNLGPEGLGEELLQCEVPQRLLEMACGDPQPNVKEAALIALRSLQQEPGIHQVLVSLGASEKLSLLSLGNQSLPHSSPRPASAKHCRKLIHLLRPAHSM
Method in brief: as §1

ZAP70 = target: T3, ZAP70 (Homo sapiens, UniProt P43403); conditions: ZAP70, 1 μM; read-out: % control
T3 sequence (P43403 1-619): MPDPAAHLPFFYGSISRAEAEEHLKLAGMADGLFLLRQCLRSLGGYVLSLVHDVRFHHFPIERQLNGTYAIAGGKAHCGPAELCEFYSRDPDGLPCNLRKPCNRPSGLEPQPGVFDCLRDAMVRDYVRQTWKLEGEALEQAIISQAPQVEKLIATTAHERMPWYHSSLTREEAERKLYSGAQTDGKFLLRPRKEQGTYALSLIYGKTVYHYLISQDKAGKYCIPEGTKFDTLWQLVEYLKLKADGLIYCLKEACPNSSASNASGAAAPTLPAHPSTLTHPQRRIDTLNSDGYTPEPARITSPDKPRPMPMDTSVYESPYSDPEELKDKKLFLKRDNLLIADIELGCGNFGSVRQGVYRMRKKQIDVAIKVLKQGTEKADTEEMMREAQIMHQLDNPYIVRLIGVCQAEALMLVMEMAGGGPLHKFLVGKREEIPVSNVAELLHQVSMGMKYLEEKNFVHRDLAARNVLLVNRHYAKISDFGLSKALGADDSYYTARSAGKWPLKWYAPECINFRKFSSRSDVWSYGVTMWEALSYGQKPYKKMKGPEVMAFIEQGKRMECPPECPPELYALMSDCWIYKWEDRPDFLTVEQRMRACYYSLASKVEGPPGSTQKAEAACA
Method in brief: as §1

MLK2 = MLK2 (Homo sapiens, UniProt Q02779); conditions: MLK2, 1 μM; read-out: % control
MLK2, sequence (Q02779 whole entry): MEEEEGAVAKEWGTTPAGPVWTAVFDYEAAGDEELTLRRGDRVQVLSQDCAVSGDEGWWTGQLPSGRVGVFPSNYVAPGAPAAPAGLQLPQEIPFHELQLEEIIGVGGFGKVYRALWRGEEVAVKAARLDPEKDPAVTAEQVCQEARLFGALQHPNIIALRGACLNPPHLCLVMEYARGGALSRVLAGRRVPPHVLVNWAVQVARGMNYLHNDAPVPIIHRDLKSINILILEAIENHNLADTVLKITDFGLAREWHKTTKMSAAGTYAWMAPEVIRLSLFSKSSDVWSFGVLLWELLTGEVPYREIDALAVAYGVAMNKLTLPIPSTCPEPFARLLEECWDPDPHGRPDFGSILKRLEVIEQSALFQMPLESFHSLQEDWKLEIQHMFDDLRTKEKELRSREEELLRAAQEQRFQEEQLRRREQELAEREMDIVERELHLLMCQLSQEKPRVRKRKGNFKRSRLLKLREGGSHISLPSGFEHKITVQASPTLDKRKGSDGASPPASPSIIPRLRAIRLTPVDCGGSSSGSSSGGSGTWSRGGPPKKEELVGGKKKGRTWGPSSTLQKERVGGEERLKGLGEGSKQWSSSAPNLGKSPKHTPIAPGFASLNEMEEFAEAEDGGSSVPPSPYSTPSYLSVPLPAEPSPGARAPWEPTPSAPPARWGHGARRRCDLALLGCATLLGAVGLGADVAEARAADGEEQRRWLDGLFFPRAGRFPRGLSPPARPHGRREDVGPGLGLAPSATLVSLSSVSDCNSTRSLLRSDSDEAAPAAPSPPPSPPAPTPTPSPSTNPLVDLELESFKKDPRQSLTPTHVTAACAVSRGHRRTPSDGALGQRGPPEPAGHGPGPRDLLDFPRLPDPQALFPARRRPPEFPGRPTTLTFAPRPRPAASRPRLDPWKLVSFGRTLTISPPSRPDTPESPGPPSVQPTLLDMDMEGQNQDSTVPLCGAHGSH
Method in brief: as §1

CSF1R = CSF1R (Homo sapiens, UniProt P07333); conditions: read-out: % control
CSF1R, sequence (P07333 20-972): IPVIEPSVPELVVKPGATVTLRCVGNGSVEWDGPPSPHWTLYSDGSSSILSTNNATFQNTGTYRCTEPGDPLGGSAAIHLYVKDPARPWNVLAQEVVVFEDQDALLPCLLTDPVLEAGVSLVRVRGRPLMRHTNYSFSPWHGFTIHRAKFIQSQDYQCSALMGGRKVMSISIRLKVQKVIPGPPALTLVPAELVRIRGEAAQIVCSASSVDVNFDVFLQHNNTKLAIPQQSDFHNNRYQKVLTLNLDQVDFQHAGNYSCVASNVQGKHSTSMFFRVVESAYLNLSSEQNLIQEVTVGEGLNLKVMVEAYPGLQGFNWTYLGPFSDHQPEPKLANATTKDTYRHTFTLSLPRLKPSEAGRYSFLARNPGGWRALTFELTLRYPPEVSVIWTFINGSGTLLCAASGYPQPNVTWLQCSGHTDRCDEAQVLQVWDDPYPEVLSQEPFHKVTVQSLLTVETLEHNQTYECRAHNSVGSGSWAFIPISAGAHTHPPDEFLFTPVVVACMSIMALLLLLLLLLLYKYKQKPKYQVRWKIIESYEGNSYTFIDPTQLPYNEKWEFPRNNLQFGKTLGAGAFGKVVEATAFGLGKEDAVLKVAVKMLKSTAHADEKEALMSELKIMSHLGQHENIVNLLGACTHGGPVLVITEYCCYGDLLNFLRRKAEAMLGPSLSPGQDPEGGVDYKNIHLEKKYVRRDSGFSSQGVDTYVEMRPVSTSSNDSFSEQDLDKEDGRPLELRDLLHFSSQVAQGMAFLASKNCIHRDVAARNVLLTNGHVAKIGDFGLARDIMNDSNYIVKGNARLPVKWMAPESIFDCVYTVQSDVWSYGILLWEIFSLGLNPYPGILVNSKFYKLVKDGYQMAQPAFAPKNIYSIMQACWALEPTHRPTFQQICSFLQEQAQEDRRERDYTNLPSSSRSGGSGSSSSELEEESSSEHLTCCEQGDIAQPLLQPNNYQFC
Method in brief: as §1

ERK1, sequence (P27361 whole entry): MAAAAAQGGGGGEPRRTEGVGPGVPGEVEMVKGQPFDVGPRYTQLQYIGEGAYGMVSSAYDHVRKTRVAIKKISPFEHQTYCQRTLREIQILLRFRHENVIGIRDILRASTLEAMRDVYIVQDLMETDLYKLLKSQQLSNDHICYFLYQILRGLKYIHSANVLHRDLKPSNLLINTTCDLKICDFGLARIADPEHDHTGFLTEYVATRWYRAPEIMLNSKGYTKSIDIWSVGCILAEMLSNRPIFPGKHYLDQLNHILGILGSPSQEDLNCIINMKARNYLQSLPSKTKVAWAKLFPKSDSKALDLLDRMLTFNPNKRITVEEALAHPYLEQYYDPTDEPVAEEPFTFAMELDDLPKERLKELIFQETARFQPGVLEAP

SMILES	remaining binding at 1 µM (ERK1) [%]	remaining binding at 1 µM (PHKG2) [%]	remaining binding at 1 µM (DAPK1) [%]	remaining binding at 1 µM (STK36) [%]	remaining binding at 1 µM (ZAP70) [%]	remaining binding at 1 µM (MLK2) [%]	remaining binding at 1 µM (CSF1R) [%]
CNc1c(-c2cnn([C@H]3CCN(C(C)=O)C[C@@H]3F)c2)cnc2[nH]cc(Cl)c12 [Compound 77, 1-((3S,4S)-4-(4-(3-chloro-4-(methylamino)-1H-pyrrolo[2,3-b]pyridin-5-yl)-1H-pyrazol-1-yl)-3-fluoropiperidin-1-yl)ethan-1-one]	100	52	73	100	100	62	74
O=C(c1ccc(-c2cnc3[nH]cc(Cl)c3c2NC2CCCC2)cc1)N1CCC(N2CCOCC2)CC1 [Compound 101, (4-(3-chloro-4-(cyclopentylamino)-1H-pyrrolo[2,3-b]pyridin-5-yl)phenyl)(4-morpholinopiperidin-1-yl)methanone]	98	100	80	96	55	69	28
CNc1c(-c2ccc(C(=O)N3CCC(N4CCOCC4)CC3)cc2)cnc2[nH]cc(Cl)c12 [Compound 96, (4-(3-chloro-4-(methylamino)-1H-pyrrolo[2,3-b]pyridin-5-yl)phenyl)(4-morpholinopiperidin-1-yl)methanone]	100	19	74	99	100	39	73
